The results in this text go back to patent US20260053716A1, “COMPOSITION FOR DENTIN ADHESION AND COMPOSITION FOR PULP RESTORATION, EACH COMPOSITION CONTAINING CPNE7-DERIVED PEPTIDE” (HYSENSBIO CO., LTD, priority 2022, published 2026).

Ends that are not written are not given here.

The nature of this series: Observation of dentinal tubule permeability by confocal microscopy. The class given is in vitro ADME. The following applies: rhodamine-attached KH001 in ABU, applied about 30 seconds to coronal surface of extracted human tooth. From the text: The composition for dentin adhesion prepared according to Example 2-1-1 of the present invention was applied to extracted human teeth to observe dentinal tubule permeability. The extracted human teeth were impacted human third molars from patients aged 18 to 22, provided by the Seoul National University Dental Hospital. The experimental protocol was approved by the Institutional Review Board (IRB; IRB Number: S-D20140007), and prior consent was obtained from all patients.
The crown of the extracted human tooth was transversely cut using a diamond saw to expose the dentinal tubule, and then the exposed human tooth was treated. A composition for dentin adhesion prepared according to Example 2-1-1 containing the KH001 peptide (SEQ ID NO: 96), to which rhodamine was attached as a fluorescent dye, was applied to the coronal surface of the extracted human tooth.
The composition for dentin adhesion was applied without a brushing process or an air-drying process and left for about 30 seconds for photopolymerization, and then confocal images were taken.

In the case of KYKQKRRSYK [KH001, KYKQKRRSYK], the “dentinal tubule permeability (whether KH001 reached the pulp)” value was “flowed well into the pulp cavity along the dentinal tubule”.
